Data on 34 molecules can be found in patent US5189058A, “Iminodicarbonic, iminodicarbonodithioic, and thiocarbonylcarbamic acid esters useful as ACAT inhibitors” (Warner-Lambert Company, priority 1991, dated 1993).

Where two headings read alike, the source gives them in different places.

The nature of test [1]: in vivo screen designated APCC (blood cholesterol in rats on high fat, high cholesterol diet). As to conditions: Rattus norvegicus, 16 h, male Sprague-Dawley rats, 30 mg/kg in CMC/Tween at 4 PM, PCC diet (0.5% cholic acid) overnight, sacrificed 8 AM, read-out: % Change (mg/dl). As for the experimental part:
In one in vivo screen designated APCC, male Sprague-Dawley rats (200 to 225 g) were randomly divided into treatment groups and dosed at 4 PM with either vehicle (CMC/Tween) or suspensions of compounds in vehicle at a dose of 30 mg/kg. The normal chow diet was then replaced with a high fat, high cholesterol diet (designated PCC) containing 0.5% cholic acid. The rats consumed this diet ad libitum during the night and were sacrificed at 8 AM to obtain blood samples for cholesterol analysis using standard procedures. Statistical differences between mean cholesterol values for the same vehicle were determined using analysis of variance followed by Fisher's least significant test.

The target of test [2] is T1, acyl-CoA: cholesterol acyltransferase (ACAT) (Oryctolagus cuniculus, UniProt G1SFD9).
T1 sequence (G1SFD9 1-524): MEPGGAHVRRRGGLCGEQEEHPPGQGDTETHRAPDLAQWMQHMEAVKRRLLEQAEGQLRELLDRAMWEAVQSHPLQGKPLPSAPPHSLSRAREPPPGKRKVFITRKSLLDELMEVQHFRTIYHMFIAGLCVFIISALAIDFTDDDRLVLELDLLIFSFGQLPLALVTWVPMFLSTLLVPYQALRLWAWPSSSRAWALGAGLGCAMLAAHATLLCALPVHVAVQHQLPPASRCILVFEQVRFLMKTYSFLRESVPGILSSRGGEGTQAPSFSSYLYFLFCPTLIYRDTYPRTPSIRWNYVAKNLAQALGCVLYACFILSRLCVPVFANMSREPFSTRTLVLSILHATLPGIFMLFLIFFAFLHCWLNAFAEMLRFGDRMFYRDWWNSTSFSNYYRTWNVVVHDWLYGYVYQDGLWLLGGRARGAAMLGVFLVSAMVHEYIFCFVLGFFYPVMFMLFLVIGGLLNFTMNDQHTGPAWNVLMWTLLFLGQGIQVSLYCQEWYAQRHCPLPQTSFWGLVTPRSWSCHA
The test can be described thus: in vitro ACAT inhibition (radiolabeled cholesterol oleate formed from radiolabeled oleic acid, rabbit intestinal microsomes). The class given is biochemical.
Method: The ability of representative compounds of the present invention to inhibit ACAT was measured using an in vitro test more fully described in F. J. Field and R. G. Salone, Biochemica et Biophysica 712:557-570 (1982). The test assesses the ability of a test compound to inhibit the acylation of cholesterol by oleic acid by measuring the amount of radiolabeled cholesterol oleate formed from radiolabeled oleic acid in a tissue preparation containing rabbit intestinal microsomes.

The mark [3] stands for this setting: rabbit intestinal microsomes, acylation of cholesterol by oleic acid, read-out: IC50.

Regarding `CCCCCCCCCCCCC(C)OC(=O)NC(=O)Oc1c(C(C)C)cccc1C(C)C` (racemic) [Example 3, Iminodicarbonic acid, 2,6-bis(1-methylethyl)phenyl 1-methyltridecyl ester, (±)], the change in vivo at 30 mg/kg in test [1] is -50%.
Still for that read-out and setting: under `CCCCCC(C)OC(=O)NC(=O)Oc1c(C(C)C)cccc1C(C)C` (racemic) [Example 9, Iminodicarbonic acid, 2,6-bis(1-methylethyl)phenyl 1-methylhexyl ester, (± )] stands -60%; under `CC(C)c1cccc(C(C)C)c1OC(=O)NC(=O)OC(c1ccccc1)c1ccccc1` [Example 1, Iminodicarbonic acid, 2,6-bis(1-methylethyl)phenyldiphenylmethyl ester], -13%.
On the same count and under the same terms, to `CCCCCCCCCCCCOC(=O)NC(=O)Oc1c(C(C)C)cccc1C(C)C` [Example 2, Iminodicarbonic acid, dodecyl 2,6-bis(1-methylethyl)phenyl ester] belongs -52%; to `CCCCCCCCCCCCC(C)(C)OC(=O)NC(=O)Oc1c(C(C)C)cccc1C(C)C` [Example 4, Iminodicarbonic acid, 2,6-bis(1-methylethyl)phenyl 1,1-dimethyltridecyl ester], -51%; to `CCCCC(C)(C)OC(=O)NC(=O)Oc1c(C(C)C)cccc1C(C)C` [Example 5, Iminodicarbonic acid, 2,6-bis(1-methylethyl)phenyl 1,1-dimethylpentyl ester], -29%.
Consider `CCCCCCOC(=O)NC(=O)Oc1c(C(C)C)cccc1C(C)C` [Example 6, Iminodicarbonic acid, 2,6-bis(1-methylethyl)phenyl hexyl ester], for which the half-maximal inhibitory concentration (IC50) (usually the concentration at which inhibition is half-maximal) in test [2] (setting [3]) stood at 93 nM. The change in vivo at 30 mg/kg in test [1] is -38%.
Take `CCCCC[C@H](C)OC(=O)NC(=O)Oc1c(C(C)C)cccc1C(C)C` [Example 7, Iminodicarbonic acid, 2,6-bis(1-methylethyl)phenyl 1-methylhexyl ester (S)]: the change in vivo at 30 mg/kg in test [1] is -25%.
On the same count and under the same terms, to `CCCCC[C@@H](C)OC(=O)NC(=O)Oc1c(C(C)C)cccc1C(C)C` [Example 8, Iminodicarbonic acid, 2,6-bis(1-methylethyl)phenyl 1-methylhexyl ester (R)] belongs -49%.
On to `CCCCCCCCCCCCCCCCOC(=O)NC(=O)Oc1c(C(C)C)cccc1C(C)C` [Example 10, Iminodicarbonic acid, 2,6-bis(1-methylethyl)phenyl hexadecyl ester], for which the concentration for half-maximal inhibition (IC50) in test [2] (setting [3]) was 50 nM. The change in vivo at 30 mg/kg in test [1] was -70%.
As for `CCCCCCCCCCCOC(=O)NC(=O)Oc1c(C(C)C)cccc1C(C)C` [Example 11, Iminodicarbonic acid, 2,6-bis(1-methylethyl)phenyl undecyl ester], in test [1], the change in vivo at 30 mg/kg was -65%.
`CCCCCCCCCCCCCCCCCCOC(=O)NC(=O)Oc1c(C(C)C)cccc1C(C)C` [Example 12, Iminodicarbonic acid, 2,6-bis(1-methylethyl)phenyl octadecyl ester]: the 50% inhibitory concentration (IC50) in test [2] (setting [3]) came to 1200 nM. In addition, the change in vivo at 30 mg/kg in test [1] is -34%.
Take `CCCCCCCC(C)OC(=O)NC(=O)Oc1c(C(C)C)cccc1C(C)C` (stereo not drawn) [Example 13]: the change in vivo at 30 mg/kg in test [1] was -56%.
The same measure, in the same setting: to `CCCCCCCCC(C)OC(=O)NC(=O)Oc1c(C(C)C)cccc1C(C)C` (stereo not drawn) [Example 14, Iminodicarbonic acid, 2,6-bis(1-methylethyl)phenyl 1-methylnonyl ester] belongs -54%.
On the same count and under the same terms, to `CCCCCCCCCCC(C)OC(=O)NC(=O)Oc1c(C(C)C)cccc1C(C)C` (stereo not drawn) [Example 15, Iminodicarbonic acid, 2,6-bis(1-methylethyl)phenyl 1-methylundecyl ester] belongs -66%; to `CCCCCCCCOC(=O)NC(=O)Oc1c(C(C)C)cccc1C(C)C` [Example 16, Iminodicarbonic acid, 2,6-bis(1-methylethyl)phenyl octyl ester], -47%; to `CCCCCCCCCCOC(=O)NC(=O)Oc1c(C(C)C)cccc1C(C)C` [Example 17, Iminodicarbonic acid, 2,6-bis(1-methylethyl)phenyl decyl ester], -43%.
In the case of `CCCCCCCCCCCCSC(=O)NC(=O)Oc1c(C(C)C)cccc1C(C)C` [Example 18, [(Dodecylthio)carbonyl] -carbamic acid, 2,6-bis(1-methylethyl)phenyl ester], the IC50 in test [2] (setting [3]) was found to be 28 nM. In addition, the change in vivo at 30 mg/kg in test [1] is -63%.
On to `CC(C)c1cccc(C(C)C)c1OC(=O)NC(=O)Sc1c(C(C)C)cccc1C(C)C` [Example 19, 2,6-Bis[[(1-methylethyl)phenyl]thio]carbamic acid, 2,6-bis(1-methylethyl)phenyl ester], for which, in test [1], the change in vivo at 30 mg/kg is -20%.
In the case of `CCCCCCCCCCSC(=O)NC(=O)Oc1c(C(C)C)cccc1C(C)C` [Example 20, [(Decylthio)carbonyl]carbamic acid, 2,6-bis(1-methylethyl)phenyl ester], the change in vivo at 30 mg/kg in test [1] was -52%.
The same measure, in the same setting: to `CC(C)c1cccc(C(C)C)c1OC(=O)NC(=O)Oc1c(C(C)C)cccc1C(C)C` [Example 24, Iminodicarbonic acid, di[2,6-bis(1-methylethyl)phenyl]ester] belongs -43%; to `COC(=O)C(OC(=O)NC(=O)Oc1c(C(C)C)cccc1C(C)C)c1ccccc1` (stereo not drawn) [Example 25, α-[[[[[2,6-Bis(1-methylethyl)phenoxy]carbonyl]amino]carbonyl]oxy]benzeneacetic acid, methyl ester], -12%.
Consider `CC(C)c1cccc(C(C)C)c1OC(=O)NC(=O)Oc1cccc2ccccc12` [Example 26, Iminodicarbonic acid, [2,6-bis(1-methylethyl)phenyl](1-naphthalenyl) ester], for which the IC50 in test [2] (setting [3]) worked out at 1200 nM. For the same molecule, the change in vivo at 30 mg/kg in test [1] was -11%.
Regarding `CC(C)c1cccc(C(C)C)c1OC(=O)NC(=O)Oc1ccccc1` [Example 27, Iminodicarbonic acid, 2,6-bis(1-methylethyl)phenyl phenyl ester], the IC50 in test [2] (setting [3]) turned out to be 3700 nM.
In the case of `CC(C)c1cccc(C(C)C)c1OC(=O)NC(=O)Sc1ccccc1` [Example 28], the 50% inhibitory concentration (IC50) in test [2] (setting [3]) is 1800 nM. Further, the change in vivo at 30 mg/kg in test [1] is -19%.
As for `CCCCCCCCCCCCOC(=O)NC(=O)Oc1c(OC)cc(OC)cc1OC` [Example 29, Iminodicarbonic acid, dodecyl 2,4,6-trimethoxyphenyl ester], the IC50 in test [2] (setting [3]) is more than 5000 nM.
On to `CCCCCCCCCCCCC(C)OC(=O)NC(=O)Oc1ccc(F)cc1F` (stereo not drawn) [Example 30, Iminodicarbonic acid, 2,4-difluorophenyl 1-methyltridecyl ester], for which the 50% inhibitory concentration (IC50) in test [2] (setting [3]) is more than 5000 nM. In addition, in test [1], the change in vivo at 30 mg/kg was -15%.
For `CCCCCCCCCCCCSC(=O)NC(=O)Sc1c(C(C)C)cccc1C(C)C` [Example 31, Iminodicarbonodithioic acid, 5-[2,6-bis(1-methylethyl)phenyl] S'-dodecyl ester] the same measures were more than 1000 nM and -35%.
The matching figures for `O=C(NC(=O)Oc1c(-c2ccccc2)cccc1-c1ccccc1)Oc1c(-c2ccccc2)cccc1-c1ccccc1` [Example 32, Iminodicarbonic acid, di[1,1'[3',1"-terphenyl]-2-yl]ester]: 10400 nM and -36%.
As to `Cc1cccc(C)c1SC(=O)NC(=O)Sc1c(C)cccc1C` [Example 33, Iminodicarbonodithioic acid, S,S'-bis[2,6-bis(methyl)phenyl]ester], the 50% inhibitory concentration (IC50) in test [2] (setting [3]) is 230 nM. For the same molecule, the change in vivo at 30 mg/kg in test [1] was -33%.
As for `CCCCCCCCCCCCOC(=O)NC(=O)Sc1c(C(C)C)cccc1C(C)C` [Example 34, [[[2,6-Bis(1-methylethyl)phenyl]thio]carbonyl]carbamic acid, dodecyl ester], the 50% inhibitory concentration (IC50) in test [2] (setting [3]) was more than 5000 nM.
Consider `CC(C)(C)c1cccc(C(C)(C)C)c1OC(=O)NC(=O)Oc1c(C(C)(C)C)cccc1C(C)(C)C` [Example 35, Iminodicarbonic acid bis[2,6-bis(1,1-dimethylethyl)phenyl]ester], for which, in test [1], the change in vivo at 30 mg/kg was -4%.
Take `O=C(NC(=O)OC(c1ccccc1)c1ccccc1)OC(c1ccccc1)c1ccccc1` [Example 36, Iminodicarbonic acid, di(diphenylmethyl)ester]: in test [2] (setting [3]), the 50% inhibitory concentration (IC50) was more than 5000 nM.
For `CCCCCCCCCCCCC(C)OC(=O)N(C)C(=O)Oc1c(C(C)C)cccc1C(C)C` (stereo not drawn) [Example 37, Methyliminodicarbonic, 2,6-bis(1-methylethyl)phenyl 1-methyltridecyl ester], the IC50 in test [2] is 600 nM. In test [1], the change in vivo at 30 mg/kg is -8%.
